tested on: HL-60; experiment: Apoptotic activity against HL-60 (Human leukemia) cell after 6 hr of stimulation measured by MTT assay; format: functional

| SMILES | Apoptosis [%] |
| --- | --- |
| CCCCCCCCCCCCCCC[C@@H](O)[C@H](CCO)NC(C)=O | 21 |
| CCCCCCCCCCCCC/C=C/[C@@H](O)[C@H](CCO)NC(C)=O | 48 |
| CCCCCCCCCCCCCCC[C@@H](O)[C@H](CCCO)NC(C)=O | 20 |
| CCCCCCCCCCCCC/C=C/[C@@H](O)[C@H](CCCO)NC(C)=O | 52 |
| CCCCCCCCCCCCC/C=C/[C@@H](O)[C@H](CO)NC(C)=O (stereo in doubt; form 1) | 62 |

Source: ChEMBL document CHEMBL1136578, “Synthesis of non-natural C2-homo-ceramide and its apoptotic activity against HL-60 cells” (2003)
